# Measurements reported in ChEMBL document CHEMBL5678816, “A Next-Generation TRK Kinase Inhibitor Overcomes Acquired Resistance to Prior TRK Kinase Inhibition in Patients with TRK Fusion-Positive Solid Tumors” (Cancer Discov, 2017).
# Activity calls are given as the source filed them. The rule behind the calls is not given here.
# Assays:
# [1] = Oral bioavailability in monkey at 10 mg/kg administered as 20% hydroxypropyl-beta-cyclodextrin formulation by LC-MS analysis; format: ADME, organism-based, Macaca mulatta; settings: rhesus monkey, in vivo
# DMS-53 = experiment: Inhibition of cell proliferation in human DMS-53 cells upto 10 umol/L incubated for 72 hrs by DAPI staining based analysis; format: functional; settings: dose <= 10.0 µmol/L
# BXPC-3 = experiment: Inhibition of cell proliferation in human BXPC-3 cells upto 10 umol/L incubated for 72 hrs by DAPI staining based analysis; format: functional; settings: dose <= 10.0 µmol/L
# HT-29 = experiment: Inhibition of cell proliferation in human HT-29 cells upto 10 umol/L incubated for 72 hrs by DAPI staining based analysis; format: functional; settings: dose <= 10.0 µmol/L
# Caov-3 cell line = experiment: Inhibition of cell proliferation in human Caov-3 cells upto 10 umol/L incubated for 72 hrs by DAPI staining based analysis; format: functional; settings: dose <= 10.0 µmol/L
# [2] = AUC in adult patient with recurrent LMNA-NTRK1 rearranged colorectal cancer at 50 mg administered twice a day as powder-in-capsule or liquid formulation for 1 day by LC-MS/MS analysis; format: ADME; settings: human, in vivo, po
# [3] = biological target: ALK tyrosine kinase receptor (Homo sapiens) (UniProt Q9UM73); experiment: Inhibition of ALK (unknown origin) at 1 uM in presence of ATP relative to control; values are per cent of control
# [4] = biological target: Tyrosine-protein kinase BTK (Homo sapiens) (UniProt Q06187); experiment: Inhibition of BTK (unknown origin) at 1 uM in presence of ATP relative to control; values are per cent of control
# [5] = biological target: Tyrosine-protein kinase Mer (Homo sapiens) (UniProt Q12866); experiment: Inhibition of Mer (unknown origin) at 1 uM in presence of ATP relative to control; values are per cent of control
# [6] = biological target: Hepatocyte growth factor receptor (Homo sapiens) (UniProt P08581); experiment: Inhibition of Met (unknown origin) at 1 uM in presence of ATP relative to control; values are per cent of control
# [7] = biological target: Proto-oncogene tyrosine-protein kinase receptor Ret (Homo sapiens) (UniProt P07949); experiment: Inhibition of Ret (unknown origin) at 1 uM in presence of ATP relative to control; values are per cent of control
# [8] = biological target: RAC-alpha serine/threonine-protein kinase (Homo sapiens) (UniProt P31749); experiment: Inhibition of AKT1 (unknown origin) at 1 uM in presence of ATP relative to control; values are per cent of control
# [9] = biological target: Ribosomal protein S6 kinase alpha-3 (Homo sapiens) (UniProt P51812); experiment: Inhibition of Rsk2 (unknown origin) at 1 uM in presence of ATP relative to control; values are per cent of control
# [10] = biological target: Serine/threonine-protein kinase Sgk1 (Homo sapiens) (UniProt O00141); experiment: Inhibition of SGK1 (unknown origin) at 1 uM in presence of ATP relative to control; values are per cent of control
# [11] = biological target: Maternal embryonic leucine zipper kinase (Homo sapiens) (UniProt Q14680); experiment: Inhibition of MELK (unknown origin) at 1 uM in presence of ATP relative to control; values are per cent of control
# [12] = biological target: Serine/threonine-protein kinase PLK3 (Homo sapiens) (UniProt Q9H4B4); experiment: Inhibition of Plk3 (unknown origin) at 1 uM in presence of ATP relative to control; values are per cent of control
# [13] = biological target: Serine/threonine-protein kinase ULK3 (Homo sapiens) (UniProt Q6PHR2); experiment: Inhibition of ULK3 (unknown origin) at 1 uM in presence of ATP relative to control; values are per cent of control
# [14] = biological target: Serine/threonine-protein kinase WNK3 (Homo sapiens) (UniProt Q9BYP7); experiment: Inhibition of WNK3 (unknown origin) at 1 uM in presence of ATP relative to control; values are per cent of control
# [15] = biological target: Serine/threonine-protein kinase 3 (Homo sapiens) (UniProt Q13188); experiment: Inhibition of MST2 (unknown origin) at 1 uM in presence of ATP relative to control; values are per cent of control
# [16] = biological target: Vascular endothelial growth factor receptor 1 (Homo sapiens) (UniProt P17948); experiment: Inhibition of FLt1 (unknown origin) at 1 uM in presence of ATP relative to control; values are per cent of control
# Homo sapiens [17] = species: Homo sapiens; experiment: Inhibition of CK1_y (unknown origin) at 1 uM in presence of ATP relative to control; values are per cent of control
# [18] = biological target: Ephrin type-A receptor 3 (Homo sapiens) (UniProt P29320); experiment: Inhibition of EphA3 (unknown origin) at 1 uM in presence of ATP relative to control; values are per cent of control
# [19] = biological target: Fibroblast growth factor receptor 2 (Homo sapiens) (UniProt P21802); experiment: Inhibition of FGFR2 (unknown origin) at 1 uM in presence of ATP relative to control; values are per cent of control
# [20] = biological target: RAF proto-oncogene serine/threonine-protein kinase (Homo sapiens) (UniProt P04049); experiment: Inhibition of C-RAF (unknown origin) at 1 uM in presence of ATP relative to control; values are per cent of control
# [21] = biological target: Rho-associated protein kinase 2 (Homo sapiens) (UniProt O75116); experiment: Inhibition of ROCK-II (unknown origin) at 1 uM in presence of ATP relative to control; values are per cent of control
# Homo sapiens [22] = species: Homo sapiens; experiment: Inhibition of TEC Activated (unknown origin) at 1 uM in presence of ATP relative to control; values are per cent of control
# [23] = biological target: CDK7/Cyclin H/MNAT1 (Homo sapiens) (UniProt P51946+P50613+P51948); experiment: Inhibition of CDK7/cyclinH/MAT1 (unknown origin) at 1 uM in presence of ATP relative to control; values are per cent of control
# [24] = biological target: AMP-activated protein kinase (AMPK) alpha-1/beta-1/gamma-1 (Homo sapiens) (UniProt P54619+Q9Y478+Q13131); experiment: Inhibition of AMPK alpha1/beta1/gamma1 (unknown origin) at 1 uM in presence of ATP relative to control; values are per cent of control
# Serine/threonine-protein kinase Sgk1 (Homo sapiens), sequence (O00141 whole entry): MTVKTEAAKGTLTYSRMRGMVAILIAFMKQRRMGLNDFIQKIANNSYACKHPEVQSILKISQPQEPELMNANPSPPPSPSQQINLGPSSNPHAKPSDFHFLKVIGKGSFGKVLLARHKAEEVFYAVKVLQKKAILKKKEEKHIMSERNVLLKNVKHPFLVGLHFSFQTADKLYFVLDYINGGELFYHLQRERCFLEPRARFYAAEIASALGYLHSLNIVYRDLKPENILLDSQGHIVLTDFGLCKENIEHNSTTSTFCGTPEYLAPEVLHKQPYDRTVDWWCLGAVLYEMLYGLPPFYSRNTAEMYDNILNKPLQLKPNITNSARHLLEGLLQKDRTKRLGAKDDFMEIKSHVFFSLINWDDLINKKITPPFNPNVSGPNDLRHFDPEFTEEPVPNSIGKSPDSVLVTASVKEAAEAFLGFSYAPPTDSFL
# Maternal embryonic leucine zipper kinase (Homo sapiens), sequence (Q14680 whole entry, looked up): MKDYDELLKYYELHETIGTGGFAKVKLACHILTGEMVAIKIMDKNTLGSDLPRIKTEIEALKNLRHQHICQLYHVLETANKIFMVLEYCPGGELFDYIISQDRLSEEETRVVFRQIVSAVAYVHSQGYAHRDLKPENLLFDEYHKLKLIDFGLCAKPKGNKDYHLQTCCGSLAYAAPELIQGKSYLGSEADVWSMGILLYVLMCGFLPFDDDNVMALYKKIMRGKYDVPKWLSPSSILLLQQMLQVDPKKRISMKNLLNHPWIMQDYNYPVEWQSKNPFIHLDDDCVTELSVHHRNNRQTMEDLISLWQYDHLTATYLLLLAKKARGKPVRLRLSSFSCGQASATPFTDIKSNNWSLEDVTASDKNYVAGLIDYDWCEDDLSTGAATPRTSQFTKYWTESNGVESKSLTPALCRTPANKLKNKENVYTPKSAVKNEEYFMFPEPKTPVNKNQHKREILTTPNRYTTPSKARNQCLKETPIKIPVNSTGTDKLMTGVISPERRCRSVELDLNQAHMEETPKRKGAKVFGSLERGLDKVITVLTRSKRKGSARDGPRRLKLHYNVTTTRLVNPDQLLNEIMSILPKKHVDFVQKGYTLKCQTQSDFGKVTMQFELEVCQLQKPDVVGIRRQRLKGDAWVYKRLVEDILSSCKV
# Hepatocyte growth factor receptor (Homo sapiens), sequence (P08581 whole entry): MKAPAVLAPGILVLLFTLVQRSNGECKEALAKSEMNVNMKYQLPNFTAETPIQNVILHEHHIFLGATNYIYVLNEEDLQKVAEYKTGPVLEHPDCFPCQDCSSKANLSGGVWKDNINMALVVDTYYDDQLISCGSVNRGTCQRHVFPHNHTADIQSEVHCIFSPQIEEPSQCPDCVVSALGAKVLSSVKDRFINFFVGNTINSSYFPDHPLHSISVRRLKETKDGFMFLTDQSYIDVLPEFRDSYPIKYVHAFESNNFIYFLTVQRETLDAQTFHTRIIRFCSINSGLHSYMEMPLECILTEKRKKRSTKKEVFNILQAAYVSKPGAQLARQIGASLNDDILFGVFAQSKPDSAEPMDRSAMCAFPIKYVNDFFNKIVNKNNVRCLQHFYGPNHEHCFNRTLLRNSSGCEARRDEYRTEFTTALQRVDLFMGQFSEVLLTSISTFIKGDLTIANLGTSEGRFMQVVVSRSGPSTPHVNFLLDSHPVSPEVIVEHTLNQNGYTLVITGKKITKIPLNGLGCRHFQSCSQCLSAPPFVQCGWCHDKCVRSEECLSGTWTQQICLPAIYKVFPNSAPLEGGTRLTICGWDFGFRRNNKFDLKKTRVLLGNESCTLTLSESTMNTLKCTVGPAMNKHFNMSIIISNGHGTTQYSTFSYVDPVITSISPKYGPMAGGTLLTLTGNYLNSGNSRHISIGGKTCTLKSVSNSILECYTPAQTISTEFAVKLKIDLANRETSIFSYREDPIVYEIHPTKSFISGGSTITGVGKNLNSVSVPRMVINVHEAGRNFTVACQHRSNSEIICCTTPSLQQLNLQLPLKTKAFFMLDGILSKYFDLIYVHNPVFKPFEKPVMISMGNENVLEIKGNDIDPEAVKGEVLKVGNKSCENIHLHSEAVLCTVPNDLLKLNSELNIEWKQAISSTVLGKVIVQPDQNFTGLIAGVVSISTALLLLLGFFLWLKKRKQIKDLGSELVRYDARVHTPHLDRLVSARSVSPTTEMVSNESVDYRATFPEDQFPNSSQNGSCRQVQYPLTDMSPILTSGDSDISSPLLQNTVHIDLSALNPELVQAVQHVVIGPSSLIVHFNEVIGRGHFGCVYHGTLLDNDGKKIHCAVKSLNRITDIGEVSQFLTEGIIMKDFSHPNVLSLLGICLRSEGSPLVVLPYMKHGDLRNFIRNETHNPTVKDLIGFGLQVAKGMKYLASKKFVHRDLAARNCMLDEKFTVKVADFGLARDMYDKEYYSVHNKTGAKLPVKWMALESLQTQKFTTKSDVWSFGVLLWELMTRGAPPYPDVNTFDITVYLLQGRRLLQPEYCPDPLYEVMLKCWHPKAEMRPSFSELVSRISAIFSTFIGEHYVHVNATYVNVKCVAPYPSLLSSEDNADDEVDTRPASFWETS
# ALK tyrosine kinase receptor (Homo sapiens), sequence (Q9UM73 19-1620 limits assumed): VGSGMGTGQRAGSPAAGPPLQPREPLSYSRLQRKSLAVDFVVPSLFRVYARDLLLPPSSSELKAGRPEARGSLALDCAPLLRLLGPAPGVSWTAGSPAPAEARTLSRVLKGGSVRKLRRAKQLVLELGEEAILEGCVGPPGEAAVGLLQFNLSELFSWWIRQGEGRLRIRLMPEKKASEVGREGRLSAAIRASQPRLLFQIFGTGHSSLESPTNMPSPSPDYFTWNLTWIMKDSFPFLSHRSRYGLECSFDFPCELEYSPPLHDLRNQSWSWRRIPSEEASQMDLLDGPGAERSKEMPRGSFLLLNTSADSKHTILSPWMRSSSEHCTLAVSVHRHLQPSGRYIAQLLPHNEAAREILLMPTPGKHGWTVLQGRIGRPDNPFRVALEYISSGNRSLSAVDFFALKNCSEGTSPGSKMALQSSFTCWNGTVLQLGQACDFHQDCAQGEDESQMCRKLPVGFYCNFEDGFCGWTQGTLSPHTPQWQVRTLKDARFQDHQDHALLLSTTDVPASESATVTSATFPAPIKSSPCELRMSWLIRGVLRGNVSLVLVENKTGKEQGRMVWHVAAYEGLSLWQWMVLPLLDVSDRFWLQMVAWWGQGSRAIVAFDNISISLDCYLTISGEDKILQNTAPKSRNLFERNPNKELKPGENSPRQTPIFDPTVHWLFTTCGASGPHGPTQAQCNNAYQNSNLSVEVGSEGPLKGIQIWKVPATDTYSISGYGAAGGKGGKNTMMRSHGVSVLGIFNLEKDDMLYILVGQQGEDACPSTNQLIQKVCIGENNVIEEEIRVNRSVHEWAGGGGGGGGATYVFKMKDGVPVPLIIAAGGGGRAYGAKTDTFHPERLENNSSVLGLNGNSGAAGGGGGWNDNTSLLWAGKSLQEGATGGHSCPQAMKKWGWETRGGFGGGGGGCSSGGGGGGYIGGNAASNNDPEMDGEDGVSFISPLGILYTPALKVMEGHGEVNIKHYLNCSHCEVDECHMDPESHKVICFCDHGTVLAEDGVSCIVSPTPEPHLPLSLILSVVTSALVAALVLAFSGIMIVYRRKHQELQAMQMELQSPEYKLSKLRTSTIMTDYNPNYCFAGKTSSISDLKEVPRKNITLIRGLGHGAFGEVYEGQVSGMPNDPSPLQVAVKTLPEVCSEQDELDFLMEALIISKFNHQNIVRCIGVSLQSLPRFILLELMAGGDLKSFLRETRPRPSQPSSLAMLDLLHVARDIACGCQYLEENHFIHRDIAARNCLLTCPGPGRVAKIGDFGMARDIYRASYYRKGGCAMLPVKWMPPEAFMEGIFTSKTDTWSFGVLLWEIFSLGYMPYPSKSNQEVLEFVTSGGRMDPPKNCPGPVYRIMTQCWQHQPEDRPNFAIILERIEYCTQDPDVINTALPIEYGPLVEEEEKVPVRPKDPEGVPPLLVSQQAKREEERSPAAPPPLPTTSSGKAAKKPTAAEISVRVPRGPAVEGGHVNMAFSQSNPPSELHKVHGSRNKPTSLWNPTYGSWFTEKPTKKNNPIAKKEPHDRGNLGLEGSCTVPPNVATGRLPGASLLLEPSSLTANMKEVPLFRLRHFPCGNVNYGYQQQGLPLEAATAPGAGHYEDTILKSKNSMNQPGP
# Tyrosine-protein kinase BTK (Homo sapiens), sequence (Q06187 whole entry): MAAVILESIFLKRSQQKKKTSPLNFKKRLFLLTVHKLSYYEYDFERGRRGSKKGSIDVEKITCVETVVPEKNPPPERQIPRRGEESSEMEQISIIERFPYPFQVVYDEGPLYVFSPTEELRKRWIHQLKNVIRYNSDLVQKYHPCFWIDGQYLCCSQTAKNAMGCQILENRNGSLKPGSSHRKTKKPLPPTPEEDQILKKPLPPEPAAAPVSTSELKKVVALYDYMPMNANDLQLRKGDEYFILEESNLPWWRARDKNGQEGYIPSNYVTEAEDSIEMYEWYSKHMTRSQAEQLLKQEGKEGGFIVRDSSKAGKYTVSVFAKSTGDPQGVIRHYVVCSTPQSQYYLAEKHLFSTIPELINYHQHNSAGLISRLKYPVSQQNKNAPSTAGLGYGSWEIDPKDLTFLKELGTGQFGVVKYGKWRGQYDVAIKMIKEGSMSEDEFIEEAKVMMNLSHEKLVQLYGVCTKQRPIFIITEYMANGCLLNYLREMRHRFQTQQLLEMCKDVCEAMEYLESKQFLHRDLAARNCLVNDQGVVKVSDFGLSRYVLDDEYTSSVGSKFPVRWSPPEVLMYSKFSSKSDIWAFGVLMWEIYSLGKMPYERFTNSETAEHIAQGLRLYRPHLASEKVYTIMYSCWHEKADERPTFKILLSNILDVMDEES
smiles,measurement,setting,value
C[C@@H]1CCc2ncc(F)cc2[C@H]2CCCN2c2ccn3ncc(c3n2)C(=O)N1 [SELITRECTINIB],bioavailability,[1],2%
same,inhibition,DMS-53,inactive
same,inhibition,BXPC-3,inactive
same,inhibition,HT-29,inactive
same,inhibition,Caov-3 cell line,inactive
same,AUC at 24 h,[2],1190 ng·h/mL
same,residual activity,[3],50%
same,residual activity,[4],87%
same,residual activity,[5],117%
same,residual activity,[6],109%
same,residual activity,[7],80.5%
same,residual activity,[8],120%
same,residual activity,[9],134%
same,residual activity,[10],124%
same,residual activity,[11],104%
same,residual activity,[12],93.5%
same,residual activity,[13],95.5%
same,residual activity,[14],110%
same,residual activity,[15],112%
same,residual activity,[16],101%
same,residual activity,Homo sapiens [17],114%
same,residual activity,[18],104%
same,residual activity,[19],96.5%
same,residual activity,[20],92.5%
same,residual activity,[21],105%
same,residual activity,Homo sapiens [22],112%
same,residual activity,[23],108%
same,residual activity,[24],96.5%
